Test results reported in patent US20220002314A1 (priority 2018, published 2022).
Like-named read-outs stand apart in the source and are kept apart here.

Key:
[1] = target: Human α2δ-1 subunit of Cav2.2 calcium channel (Homo sapiens, UniProt P54289); experiment: biochemical; type: binding
[2] = target: Human μ-opioid receptor (Homo sapiens, UniProt P35372); experiment: biochemical; type: binding
Sequence of Human μ-opioid receptor (P35372 whole entry): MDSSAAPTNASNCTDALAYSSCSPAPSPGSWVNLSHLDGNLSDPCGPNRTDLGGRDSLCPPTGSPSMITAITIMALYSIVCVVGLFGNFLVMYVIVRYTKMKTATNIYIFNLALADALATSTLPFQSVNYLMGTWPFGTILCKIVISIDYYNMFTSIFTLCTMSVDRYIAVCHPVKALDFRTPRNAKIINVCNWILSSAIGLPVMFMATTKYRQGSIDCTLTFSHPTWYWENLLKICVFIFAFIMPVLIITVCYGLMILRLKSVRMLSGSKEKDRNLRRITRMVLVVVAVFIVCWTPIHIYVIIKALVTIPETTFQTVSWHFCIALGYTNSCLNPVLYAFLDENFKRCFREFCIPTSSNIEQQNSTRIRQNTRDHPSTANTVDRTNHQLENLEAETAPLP

Sequence of Human α2δ-1 subunit of Cav2.2 calcium channel (P54289 25-1103): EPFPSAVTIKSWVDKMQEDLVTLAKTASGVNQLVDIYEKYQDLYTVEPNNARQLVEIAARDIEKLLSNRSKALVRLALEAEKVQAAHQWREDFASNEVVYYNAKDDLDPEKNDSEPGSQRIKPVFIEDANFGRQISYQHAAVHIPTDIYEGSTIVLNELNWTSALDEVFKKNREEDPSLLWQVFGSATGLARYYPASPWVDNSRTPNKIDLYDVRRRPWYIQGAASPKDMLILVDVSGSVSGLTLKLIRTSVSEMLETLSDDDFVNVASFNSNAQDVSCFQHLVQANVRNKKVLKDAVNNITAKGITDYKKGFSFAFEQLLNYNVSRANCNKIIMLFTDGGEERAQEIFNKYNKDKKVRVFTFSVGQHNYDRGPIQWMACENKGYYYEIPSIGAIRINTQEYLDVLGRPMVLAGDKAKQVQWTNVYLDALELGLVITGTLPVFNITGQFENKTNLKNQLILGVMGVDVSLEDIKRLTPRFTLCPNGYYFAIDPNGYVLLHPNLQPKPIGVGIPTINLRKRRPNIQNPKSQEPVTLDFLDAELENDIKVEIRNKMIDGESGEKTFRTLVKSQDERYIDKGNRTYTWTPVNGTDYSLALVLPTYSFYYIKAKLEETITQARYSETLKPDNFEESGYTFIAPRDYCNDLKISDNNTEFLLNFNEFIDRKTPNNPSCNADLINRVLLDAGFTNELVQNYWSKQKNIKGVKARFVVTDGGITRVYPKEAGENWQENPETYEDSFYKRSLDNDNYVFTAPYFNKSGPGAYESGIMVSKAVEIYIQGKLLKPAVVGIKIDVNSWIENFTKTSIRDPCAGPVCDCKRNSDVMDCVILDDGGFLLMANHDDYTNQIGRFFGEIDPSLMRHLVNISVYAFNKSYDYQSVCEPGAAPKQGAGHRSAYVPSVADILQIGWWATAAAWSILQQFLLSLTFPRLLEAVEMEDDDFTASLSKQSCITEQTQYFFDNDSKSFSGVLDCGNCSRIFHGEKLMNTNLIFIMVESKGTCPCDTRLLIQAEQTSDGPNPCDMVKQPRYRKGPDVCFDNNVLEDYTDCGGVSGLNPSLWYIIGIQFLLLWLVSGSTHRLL

| SMILES | Ki [1] [nM] | Ki [2] [nM] | Ki ([1]; read-out: α2δ-1 binding) [nM] | Ki ([2]; read-out: μ-binding) [nM] |
| --- | --- | --- | --- | --- |
| CCCC(c1nc2c(F)cc(Br)cc2c(=O)n1CC)N1CCNCC1 (stereo not shown) [Example 87, 6-bromo-3-ethyl-8-fluoro-2-(1-(piperazin-1-yl)butyl)quinazolin-4(3H)-one] | 500 to 5000 | 100 to 500 |  |  |
| CCC[C@@H](c1nc2cc(F)c(Br)cc2c(=O)n1CC)N1CCN[C@@H](C)C1 [Example 105, 6-Bromo-3-ethyl-7-fluoro-2-((S)-1-((S)-3-methylpiperazin-1-yl)butyl)quinazolin-4(3H)-one] | < 500 | > 500 |  |  |
| CCCC(c1nc2ccccc2c(=O)n1C)N1C[C@@H](C)N[C@@H](C)C1 (stereo partly drawn) [Example 2, 2-(1-((3S,5R)-3,5-dimethylpiperazin-1-yl)butyl)-3-methylquinazolin-4(3H)-one] | < 500 | > 500 |  |  |
| CCCC(c1nc2ccc(CN(C)Cc3ccccc3)cc2c(=O)n1CC)N1C[C@@H](C)N[C@@H](C)C1 (stereo partly drawn) [Example 183, 6-((benzyl(methyl)amino)methyl)-2-(1-((3S,5R)-3,5-dimethylpiperazin-1-yl)butyl)-3-ethylquinazolin-4(3H)-one] | < 500 | > 500 |  |  |
| CCC[C@H](c1nc2ccc(Br)cc2c(=O)n1CC)N1CCN[C@@H](CO)C1 [Example 60, 6-bromo-3-ethyl-2-((R)-1-((R)-3-(hydroxymethyl)piperazin-1-yl)butyl)quinazolin-4(3H)-one] | < 500 | > 500 |  |  |
| CCCC(c1nc2cc(O)ccc2c(=O)n1C)N1C[C@@H](C)N[C@@H](C)C1 (stereo partly drawn) [Example 10, 2-(1-((3S,5R)-3,5-dimethylpiperazin-1-yl)butyl)-7-hydroxy-3-methylquinazolin-4(3H)-one] | < 500 | > 500 |  |  |
| CCC[C@@H](c1nc2cc(Cl)c(Cl)cc2c(=O)n1CC)N1CCN[C@@H](C)C1 [Example 50, 6,7-dichloro-3-ethyl-2-((S)-1-((S)-3-methylpiperazin-1-yl)butyl)quinazolin-4(3H)-one] | > 5000 | > 500 |  |  |
| CCC[C@H](c1nc2cc(O[C@@H](CNC)c3ccccc3)ccc2c(=O)n1C)N1C[C@@H](C)N[C@@H](C)C1 [Example 169, 2-((R)-1-((3S,5R)-3,5-dimethylpiperazin-1-yl)butyl)-3-methyl-7-((R)-2-(methylamino)-1-phenylethoxy)quinazolin-4(3H)-one] | 500 to 5000 | > 500 |  |  |
| CCC[C@@H](c1nc2ccc(Br)cc2c(=O)n1CC)N1CCN(C)[C@@H](C)C1 [Example 111, 6-Bromo-2-((S)-1-((S)-3,4-dimethylpiperazin-1-yl)butyl)-3-ethylquinazolin-4(3H)-one] | > 5000 | > 500 |  |  |
| CCCC(c1nc2ccccc2c(=O)n1CCN(C)C)N1C[C@@H](C)N[C@@H](C)C1 (stereo partly drawn) [Example 128, 3-(2-(Dimethylamino)ethyl)-2-(1-((3S,5R)-3,5-dimethylpiperazin-1-yl)butyl)quinazolin-4(3H)-one] |  |  | 500 to 5000 | > 500 |
| CCCC(C1=CCNCC1)c1nc2ccc(Br)cc2c(=O)n1CC (stereo not shown) [Example 188, 6-bromo-3-ethyl-2-(1-(1,2,3,6-tetrahydropyridin-4-yl)butyl)quinazolin-4(3H)-one] |  |  | 500 to 5000 | > 500 |
| CCC[C@H](c1nc2nc(C(F)(F)F)ccc2c(=O)n1CC)N1CCN[C@@H](C)C1 [Example 78, 3-ethyl-2-((R)-1-((S)-3-methylpiperazin-1-yl)butyl)-7-(trifluoromethyl)pyrido[2,3-d]pyrimidin-4(3H)-one] | < 500 | > 500 |  |  |
| CCCC(c1nc2cc(-c3ccnc(CNC)c3)ccc2c(=O)n1C)N1C[C@@H](C)N[C@@H](C)C1 (stereo partly drawn) [Example 136, 2-(1-((3S,5R)-3,5-dimethylpiperazin-1-yl)butyl)-3-methyl-7-(2-((methylamino)methyl)pyridin-4-yl)quinazolin-4(3H)-one] |  |  | 500 to 5000 | > 500 |
| CCCC(c1nc2cc(C)ccc2c(=O)n1CC)N1C[C@@H](C)N[C@@H](C)C1 (stereo partly drawn) [Example 4, 2-(1-((3S,5R)-3,5-dimethylpiperazin-1-yl)butyl)-3-ethyl-7-methylquinazolin-4(3H)-one] | < 500 | > 500 |  |  |
